These results are taken from US7084270B2, “Pyrimido compounds having antiproliferative activity” (Hoffman-La Roche Inc., priority 2002, dated 2006).

For series [1], the system named is Human umbilical vein endothelial cells (HUVEC), FGF-stimulated. The series can be described thus: FGF-stimulated HUVEC proliferation assay (BrdU). It counts as cell-based. The conditions noted are these: BrdU labeling, FGF 5 ng per mL, 24 hour exposure, read-out: HUVEC/bFGFR IC50. On the procedure: (§1) The antiproliferative activity of test compounds of this invention in cell-based assays was evaluated by BrdU assay using the BrdU kit (Roche Biochemicals 1-647-229). Human umbilical vein endothelial cells (Clonetics CC-2519) were cultured in EGM-2 (Clonetics CC-3162) medium and seeded at 10000 cells per well in a volume of 200 μL of EGM-2 (Clonetics CC-3162) media in a 96-well flat bottom plates (Costar 3595) overnight. After 24 hours of growth at 37° C. with 5% CO2, the incubation media was removed slowly by aspiration and the content of each well was washed with 300 μL pre-warmed EBM-2 (Clonetics CC-3156) containing 50 μg per mL of gentamycin and 50 ng per mL of amphotercin-B (Clonetics CC-4083). Subsequently, the remaining media was again aspirated and replaced with 160 μL per well of serum starvation media (EBM-2 supplemented with 1% heat inactivated FBS (Clonetics CC-4102), 50 μg per mL gentamycin and 50 ng per mL of amphotercin-B (Clonetics CC-4083), 10 units per mL of Wyeth-Ayerst heparin (NDC0641-0391-25), and 2 mM L-glutamine (GIBCO 25030-081). After serum starving the cells for 24 hours, 20 μL of test compound at 10× test concentration in serum starvation medium with 2.5% DMSO was added to the appropriate wells. The control wells contained 20 μL of serum starvation medium with 2.5% DMSO. Plates were returned to the incubator for 2 hours. After pre-incubating the cells with the test compounds for 2 hours, 20 μL of growth factors at 10×assay concentration diluted in serum starvation media, FGF at 50 ng per mL, or VEGF (R&D systems 293-VE) at 200 ng per mL were added. The final concentration of FGF in the assay was 5 ng per mL, and the final concentration of VEGF in the assays was 20 ng per mL. The growth factor free control wells had 20 μL per well of serum starvation media with the same amount of BSA as the wells with growth factors. The plates were returned to the incubator for an additional 22 hours.
(§2) After 24 hour exposure to the test compounds, the cells were labeled with BrdU (Roche Biochemicals 1-647-229), by adding 20 μL per well of BrdU labeling reagent that has been diluted (1:100) in serum starvation medium. The plates were then returned to the incubator for 4 hours. The labeling medium was removed by draining the medium onto paper towels. […] The plates were read at 450 nm with reference wavelength of 650 nm. The percent inhibition for each test compound was calculated by subtracting the absorbency of the blank (no cells) wells from all wells, then subtracting the division of the average absorbency of each test duplicate by the average of the controls from 1. […] The IC50 is determined from the linear regression of a plot of the logarithm of the concentration versus percent inhibition.
(Uptake of a labelled nucleoside into DNA is a usual measure of proliferation.)

For the next series, the target named is T1, FGFR.
T1 construct: fused on or other part: GST tag
Put plainly: FGFR kinase HTRF assay. Type of series: biochemical. The conditions noted are these: enzyme inhibition, 10 μM ATP. On the procedure: (§3) To determine inhibition of KDR, FGFR, EGFR, and PDGFR activity, kinase assays were conducted using an HTRF (Homogeneous Time Resolved Fluorescence) assay. This assay is described in A. J. Kolb et. al., Drug Discovery Today, 1998, 3(7), p 333.
(§4) Kinase activity assays were performed in 96-well polypropylene plates (Falcon) with a total volume of 90 μL in each well. Each well contained 1 μM KDR substrate (Biotin-EEEEYFELVAKKKK), 1 nM activated KDR, and a test compound with one of 8 assay concentrations ranging from 100 μM to […] (1:5 serial dilution). The kinase activity assay was done in the presence of 100 mM HEPES, pH 7.4, 1 mM DTT, 0.1 mM Na2VO4, 25 mM MgCl2, 50 mM NaCl (from KDR stock solution), 1% DMSO (from compound), 0.3 mM ATP (at Km concentration) and 0.02% BSA. The reaction was incubated at 37° C. for 30 minutes. To stop the KDR reaction, 72 μL of reaction mixture was transferred into a STOP plate containing 18 μL of revelation buffer (20 mM EDTA, 50 mM HEPES, pH 7.4, 0.02% BSA, 10 nM Eu-labelled anti-pY antibody (final conc. 2 nM), and 100 nM streptavidin (final conc. 20 nM)). After mixing, 35 μL of solution was transferred into duplicate wells of a 384-well black plate (Costar), and read at 615/665 nm on a Wallac Victor 5 reader.
FGFR, EGFR, and PDGFR activity assays were carried out as described above for the KDR activity assay with the following differences. GST-tagged FGFR enzyme was activated at room temperature for 1 hour in the following activation buffer: 100 mM HEPES, pH 7.4, 50 mM NaCl, 20 mM MgCl2, and 4 mM ATP. […] The rest of the assay was performed in the same manner as KDR assay.
(§5) Compound IC50 values were determined from duplicate sets of data, and calculated by using Excel and fitting data to equation Y=[(a−b)/{1+(X/c)^d]+b, where a and b are enzyme activity in the presence of no test inhibitor compound and an infinite amount of inhibitor test compound, respectively, c is the IC50 and d is the hill constant of the compound response. The IC50 value is the concentration of test compound that reduces by 50% the enzyme activity under the test conditions described.
(In general: TR-FRET usually uses a lanthanide donor and a delayed reading to cut background.)

The target of a further series is EGFR (Homo sapiens, UniProt P00533). Put plainly: EGFR kinase HTRF assay. Type of series: biochemical. The conditions noted are these: enzyme inhibition, 0.5 μM ATP. On the procedure:
as §3, §4
The rest of the assay was performed in the same manner as the KDR assay.
as §5

In the next series the target is T2, KDR (Homo sapiens, UniProt P35968).
T2 construct: EEE-tag
The series can be described thus: KDR kinase HTRF assay. Type of series: biochemical. The conditions noted are these: enzyme inhibition, 0.3 mM ATP. On the procedure: as §3
Prior to kinase reaction, recombinant EEE-tagged KDR was activated in the presence of activation buffer (50 mM HEPES, pH 7.4, 1 mM DTT, 10% glycerol, 150 mM NaCl, 0.1 mM EDTA, 26 mM MgCl2, and 4 mM ATP). The enzyme was incubated at 4° C. for 1 hour.
as §4, §5

Another series concerns the target PDGFR. Put plainly: PDGFR kinase HTRF assay. Type of series: biochemical. The conditions noted are these: enzyme inhibition, 2.3 μM ATP. On the procedure: as §3, §4
The PDGFR kinase activity assay was performed with 1 μM substrate (Biotin-EEEEYFELV), 1.0 nM PDGFR, test compounds, 100 mM HEPES, pH 7.4, 1 mM DTT, 5 mM MgCl2, 2 mM MnCl2, 1% DMSO, 2.3 μM ATP (Km for PDGFR), 0.1 mM Na2VO4, and 0.02% BSA. The rest of the assay was performed in the same manner as the KDR assay.
as §5

Series [2] concerns Human umbilical vein endothelial cells (HUVEC), VEGF-stimulated. The series can be described thus: VEGF-stimulated HUVEC proliferation assay (BrdU). It counts as cell-based. The conditions noted are these: BrdU labeling, VEGF 20 ng per mL, 24 hour exposure, read-out: HUVEC/VEFG IC50. On the procedure: as §1, with “After pre-incubating the cells with the test compounds for 2 hours, 20 μL of growth factors at 10×assay concentration diluted in serum starvation media, FGF at 50 ng per mL, or VEGF (R&D systems 293-VE) at 200 ng per mL were added. The final concentration of FGF in the assay was 5 ng per mL, and the final concentration of VEGF in the assays was 20 ng per mL. The growth factor free control wells had 20 μL per well of serum starvation media with the same amount of BSA as the wells with growth factors. The plates were returned to the incubator for an additional 22 hours.” left out
as §2, with “medium.” for “medium. The plates were then returned to the incubator for 4 hours. The labeling medium was removed by draining the medium onto paper towels.”

Read-outs that look alike come from different tables or passages of the source.

T2 sequence (P35968 20-1356, species assumed): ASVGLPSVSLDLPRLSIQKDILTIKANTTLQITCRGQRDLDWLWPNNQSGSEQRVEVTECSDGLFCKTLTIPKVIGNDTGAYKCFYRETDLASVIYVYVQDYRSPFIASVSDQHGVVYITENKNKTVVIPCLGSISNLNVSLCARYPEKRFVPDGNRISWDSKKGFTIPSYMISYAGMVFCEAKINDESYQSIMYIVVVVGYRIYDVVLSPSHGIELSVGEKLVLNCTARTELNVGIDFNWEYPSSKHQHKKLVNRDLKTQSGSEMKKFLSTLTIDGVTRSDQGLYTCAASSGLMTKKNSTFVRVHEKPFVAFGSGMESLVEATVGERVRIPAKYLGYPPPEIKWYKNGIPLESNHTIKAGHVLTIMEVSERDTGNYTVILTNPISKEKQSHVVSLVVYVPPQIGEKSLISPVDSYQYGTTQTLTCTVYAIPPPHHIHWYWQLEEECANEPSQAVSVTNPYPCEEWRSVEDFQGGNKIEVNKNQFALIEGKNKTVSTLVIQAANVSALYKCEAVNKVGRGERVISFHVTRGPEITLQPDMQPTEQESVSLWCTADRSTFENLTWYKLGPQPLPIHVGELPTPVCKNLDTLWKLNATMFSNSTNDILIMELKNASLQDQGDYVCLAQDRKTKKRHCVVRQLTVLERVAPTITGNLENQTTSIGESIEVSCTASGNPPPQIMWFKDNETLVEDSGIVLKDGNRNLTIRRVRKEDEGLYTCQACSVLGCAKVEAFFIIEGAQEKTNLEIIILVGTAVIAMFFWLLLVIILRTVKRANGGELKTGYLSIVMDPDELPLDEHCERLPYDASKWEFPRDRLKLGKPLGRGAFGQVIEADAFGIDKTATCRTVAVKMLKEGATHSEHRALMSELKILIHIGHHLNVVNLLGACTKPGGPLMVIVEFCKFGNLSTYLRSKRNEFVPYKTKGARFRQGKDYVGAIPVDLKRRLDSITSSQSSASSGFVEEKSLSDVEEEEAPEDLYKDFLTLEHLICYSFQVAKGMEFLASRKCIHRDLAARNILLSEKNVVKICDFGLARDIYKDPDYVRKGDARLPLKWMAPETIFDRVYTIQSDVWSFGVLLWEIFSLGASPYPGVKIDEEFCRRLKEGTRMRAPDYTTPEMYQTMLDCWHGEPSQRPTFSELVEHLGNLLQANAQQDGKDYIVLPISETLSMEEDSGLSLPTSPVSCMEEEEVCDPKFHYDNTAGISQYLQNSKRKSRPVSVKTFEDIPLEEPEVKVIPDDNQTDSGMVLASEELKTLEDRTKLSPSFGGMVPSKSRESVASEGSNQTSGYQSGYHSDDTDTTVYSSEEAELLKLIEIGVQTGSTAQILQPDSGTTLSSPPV
EGFR, sequence (P00533 25-1210, species assumed): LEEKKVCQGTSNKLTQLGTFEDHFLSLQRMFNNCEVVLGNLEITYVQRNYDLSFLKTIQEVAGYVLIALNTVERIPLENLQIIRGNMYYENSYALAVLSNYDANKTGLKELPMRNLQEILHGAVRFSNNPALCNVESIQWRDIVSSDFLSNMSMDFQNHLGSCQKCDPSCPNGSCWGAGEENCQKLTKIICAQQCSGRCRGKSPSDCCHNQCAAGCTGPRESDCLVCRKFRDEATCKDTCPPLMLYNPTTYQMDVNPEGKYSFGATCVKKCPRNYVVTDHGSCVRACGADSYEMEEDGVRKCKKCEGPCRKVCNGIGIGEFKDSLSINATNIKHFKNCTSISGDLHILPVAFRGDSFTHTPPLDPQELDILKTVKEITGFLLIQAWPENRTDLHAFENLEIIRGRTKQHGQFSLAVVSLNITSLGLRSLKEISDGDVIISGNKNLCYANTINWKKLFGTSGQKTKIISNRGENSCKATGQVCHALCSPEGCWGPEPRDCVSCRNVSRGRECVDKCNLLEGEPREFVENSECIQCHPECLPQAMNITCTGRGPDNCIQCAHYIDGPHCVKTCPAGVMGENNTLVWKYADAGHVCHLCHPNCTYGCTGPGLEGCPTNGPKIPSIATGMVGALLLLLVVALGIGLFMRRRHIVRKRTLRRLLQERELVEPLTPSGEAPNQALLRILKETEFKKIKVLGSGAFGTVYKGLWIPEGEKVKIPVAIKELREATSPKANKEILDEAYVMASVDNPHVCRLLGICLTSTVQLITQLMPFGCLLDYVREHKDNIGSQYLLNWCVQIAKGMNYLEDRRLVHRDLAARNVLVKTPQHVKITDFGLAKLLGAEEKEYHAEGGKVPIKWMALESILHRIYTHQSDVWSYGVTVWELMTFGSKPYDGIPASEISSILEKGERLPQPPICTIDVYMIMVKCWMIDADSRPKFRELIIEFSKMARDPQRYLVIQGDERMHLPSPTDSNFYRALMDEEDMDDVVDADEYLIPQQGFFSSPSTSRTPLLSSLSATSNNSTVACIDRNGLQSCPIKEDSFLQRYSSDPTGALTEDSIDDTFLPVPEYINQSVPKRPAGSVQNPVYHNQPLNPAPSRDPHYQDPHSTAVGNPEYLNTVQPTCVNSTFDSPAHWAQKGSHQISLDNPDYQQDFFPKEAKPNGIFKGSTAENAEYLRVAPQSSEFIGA

In the case of `COc1ccc(N2Cc3cnc(Nc4ccccc4)nc3N(c3ccccc3)C2=O)cc1` [Example 1g, 3-(4-Methoxyphenyl)-1-phenyl-7-(phenylamino)-1,3,4-trihydropyrimidino[4,5-d]pyrimidin-2-one], the IC50 in series [1] (Homo sapiens, HUVEC, 24 h) came out at 310 nM; against FGFR, 190 nM; against EGFR it was 360 nM; at KDR it was 44 nM; against PDGFR it was 130 nM; in series [2], 120 nM.

Regarding `COc1ccc(N2Cc3cnc(Nc4ccccc4)nc3N(c3ccccc3)C2=O)cc1.CS(=O)(=O)O` [Example 1h, 3-(4-Methoxyphenyl)-1-phenyl-7-(phenylamino)-1,3,4-trihydropyrimidino[4,5-d]pyrimidin-2-one methanesulfonate salt], the melting point was in the range of 245 to 251 °C. Moreover, in series [1] (methanesulfonate salt), the IC50 was 430 nM. Moreover, the IC50 at FGFR (methanesulfonate salt) stood at 170 nM. The IC50 against EGFR was determined as 350 nM. At KDR, this compound yielded an IC50 of 76 nM. Also, the IC50 at PDGFR (methanesulfonate salt) came out at 150 nM.

The compound `COc1ccc(N2Cc3cnc(N(C(=O)OCOC(=O)CN(C)C)c4ccccc4)nc3N(c3ccccc3)C2=O)cc1` [Example 5a] gave a melting point of 172 °C.

Consider `COc1ccc(N2Cc3cnc(Nc4ccc(O)cc4)nc3N(c3ccccc3)C2=O)cc1` [Example 18, 7-[(4-Hydroxyphenyl)amino]-3-(4-methoxyphenyl)-1-phenyl-1,3,4-trihydropyrimidino[4,5-d]pyrimidin-2-one], for which the IC50 stood at 150 nM in series [1] (Homo sapiens, HUVEC, 24 h); 110 nM on FGFR; 130 nM at EGFR; 29 nM at KDR; 64 nM at PDGFR; 63 nM in series [2].

`COc1ccc(Nc2ncc3c(n2)N(c2ccccc2)C(=O)N(c2ccc(OC)cc2)C3)cc1` [Example 20, 3-(4-Methoxyphenyl)-7-[(4-methoxyphenyl)amino]-1-phenyl-1,3,4-trihydropyrimidino[4,5-d]pyrimidin-2-one]: the IC50 amounted to 350 nM in series [1] (Homo sapiens, HUVEC, 24 h); 91 nM against FGFR; 180 nM against EGFR; 24 nM on KDR; 82 nM against PDGFR; 96 nM in series [2].

The term melting point denotes the temperature, or range, at which the solid turns liquid.
